Test results as given in PubChem BioAssay AID248 (DTP/NCI, 2004).
Several values for one entry are separate records, joined by “and”; a condition that tells them apart may be missing. Identical values can stand only once. Toxic doses and inconclusive results are not listed. Rule as the data show it: active = T/C of 150% or more; inactive = T/C below 125%.

Test system: L1210 leukemia ip in BDF1 mice, survival T/C
Test: NCI In Vivo Anticancer Drug Screen. Data for tumor model L1210 Leukemia (intraperitoneal) in B6D2F1 (BDF1) mice
Conditions: endpoint: mean survival time, higher = longer survival
Method in brief: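 Survival endpoint. Drug-treated group vs vehicle group, expressed as T divided by C. Tumor passaged by transplantation.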

[1] = dose: 100.0 mg/kg/injection, schedule: Q01DX001 (ip), vehicle: saline
[2] = dose: 200.0 mg/kg/injection, schedule: Q01DX001 (ip), vehicle: saline
[3] = dose: 100.0 mg/kg/injection, schedule: Q04DX003 (ip), vehicle: saline with Tween-80
[4] = dose: 200.0 mg/kg/injection, schedule: Q04DX003 (ip), vehicle: saline with Tween-80
[5] = dose: 400.0 mg/kg/injection, schedule: Q04DX003 (ip), vehicle: saline with Tween-80
[6] = dose: 50.0 mg/kg/injection, schedule: Q01DX001 (ip), vehicle: saline
[7] = dose: 100.0 mg/kg/injection, schedule: Q01DX001 (ip), vehicle: Klucel (hydroxypropylcellulose) (HPC)
[8] = dose: 200.0 mg/kg/injection, schedule: Q01DX001 (ip), vehicle: Klucel (hydroxypropylcellulose) (HPC)
[9] = dose: 400.0 mg/kg/injection, schedule: Q01DX001 (ip), vehicle: Klucel (hydroxypropylcellulose) (HPC)

Measured: T/C

O=[N+]([O-])/C=C/c1ccc(Cl)cc1Cl
inactive: dose: 20.0 mg/kg/injection, schedule: Q01DX009 (ip), vehicle: saline with Tween-80 98 % of control | dose: 20.0 mg/kg/injection, schedule: Q04DX003 (ip), vehicle: saline with Tween-80 90 % of control | dose: 25.0 mg/kg/injection, schedule: Q04DX002 (ip), vehicle: Klucel (hydroxypropylcellulose) (HPC) 106 % of control | dose: 40.0 mg/kg/injection, schedule: Q01DX009 (ip), vehicle: saline with Tween-80 102 % of control | dose: 40.0 mg/kg/injection, schedule: Q04DX003 (ip), vehicle: saline with Tween-80 101 % of control | dose: 50.0 mg/kg/injection, schedule: Q01DX001 (ip), vehicle: carboxymethylcellulose (CMC) 95 % of control | dose: 50.0 mg/kg/injection, schedule: Q04DX002 (ip), vehicle: Klucel (hydroxypropylcellulose) (HPC) 100 % of control | dose: 80.0 mg/kg/injection, schedule: Q04DX003 (ip), vehicle: saline with Tween-80 111 % of control | dose: 100.0 mg/kg/injection, schedule: Q01DX001 (ip), vehicle: carboxymethylcellulose (CMC) 98 % of control | dose: 200.0 mg/kg/injection, schedule: Q01DX001 (ip), vehicle: carboxymethylcellulose (CMC) 89 % of control | dose: 400.0 mg/kg/injection, schedule: Q01DX001 (ip), vehicle: carboxymethylcellulose (CMC) 101 % of control

CC(=O)C1CCC2C3CCC4(C)CC(=O)CCC4(C)C3C3OC3C12C (stereo not given)
inactive: dose: 100.0 mg/kg/injection, schedule: Q04DX003 (sc), vehicle: steriod suspending solution 98 % of control | dose: 200.0 mg/kg/injection, schedule: Q04DX003 (sc), vehicle: steriod suspending solution 96 % of control | dose: 400.0 mg/kg/injection, schedule: Q04DX003 (sc), vehicle: steriod suspending solution 102 % of control

CC1(C)N=C(N)N=C(N)N1c1cccc(S(=O)(=O)F)c1
inactive: dose: 0.8 mg/kg/injection, schedule: Q01DX009 (ip), vehicle: saline 95 % of control | dose: 4.0 mg/kg/injection, schedule: Q01DX009 (ip), vehicle: saline 95 % of control | dose: 20.0 mg/kg/injection, schedule: Q01DX009 (ip), vehicle: saline 100 % of control | [1] 100 % of control | [2] 102 % of control

Nc1nc2nc3c(nc2c(=O)[nH]1)CN(C1CCCCC1)C3=O
inactive: dose: 75.0 mg/kg/injection, schedule: Q01DX001 (ip), vehicle: carboxymethylcellulose (CMC) 96 % of control | dose: 150.0 mg/kg/injection, schedule: Q01DX001 (ip), vehicle: carboxymethylcellulose (CMC) 94 % of control

OCCNC(=S)SCc1ccccc1
inactive: dose: 100.0 mg/kg/injection, schedule: Q01DX009 (sc), vehicle: olive oil, sesame oil, peanut oil 102 % of control | dose: 100.0 mg/kg/injection, schedule: Q04DX003 (sc), vehicle: olive oil, sesame oil, peanut oil 96 % of control | dose: 200.0 mg/kg/injection, schedule: Q01DX009 (sc), vehicle: olive oil, sesame oil, peanut oil 120 % of control | dose: 200.0 mg/kg/injection, schedule: Q04DX003 (sc), vehicle: olive oil, sesame oil, peanut oil 98 % of control | dose: 400.0 mg/kg/injection, schedule: Q04DX003 (sc), vehicle: olive oil, sesame oil, peanut oil 105 % of control

CS(=O)(=O)c1ccc(F)cc1
inactive: dose: 100.0 mg/kg/injection, schedule: Q04DX003 (ip), vehicle: Klucel (hydroxypropylcellulose) (HPC) 103 % of control | dose: 200.0 mg/kg/injection, schedule: Q04DX003 (ip), vehicle: Klucel (hydroxypropylcellulose) (HPC) 103 % of control | dose: 400.0 mg/kg/injection, schedule: Q04DX003 (ip), vehicle: Klucel (hydroxypropylcellulose) (HPC) 97 % of control

N#CSC(C(=O)c1ccccc1)c1ccccc1 (stereo not given)
inactive: [3] 92 % of control | [4] 91 % of control | [5] 92 % of control

O=C(O)C(c1ccccc1)(c1ccccc1)c1ccccc1
inactive: [6] 101 % of control | [1] 106 % of control | [2] 103 % of control

CSc1ccc(NC(=O)Nc2ccc(F)cc2)cc1
inactive: dose: 100.0 mg/kg/injection, schedule: Q01DX009 (ip), vehicle: Klucel (hydroxypropylcellulose) (HPC) 96 % of control | dose: 200.0 mg/kg/injection, schedule: Q01DX009 (ip), vehicle: Klucel (hydroxypropylcellulose) (HPC) 97 % of control

CC[Si](C)(C)N1CC1
inactive: dose: 12.5 mg/kg/injection, schedule: Q01DX001 (ip), vehicle: carboxymethylcellulose (CMC) 106 % of control | dose: 25.0 mg/kg/injection, schedule: Q01DX001 (ip), vehicle: carboxymethylcellulose (CMC) 101 % of control | dose: 50.0 mg/kg/injection, schedule: Q04DX003 (ip), vehicle: carboxymethylcellulose (CMC) 94 % of control | dose: 100.0 mg/kg/injection, schedule: Q04DX003 (ip), vehicle: carboxymethylcellulose (CMC) 101 % of control | dose: 200.0 mg/kg/injection, schedule: Q04DX003 (ip), vehicle: carboxymethylcellulose (CMC) 101 % of control

Nc1cccc(CSc2nc3nc[nH]c3c(=O)[nH]2)c1
inactive: dose: 25.0 mg/kg/injection, schedule: Q01DX001 (ip), vehicle: Klucel (hydroxypropylcellulose) (HPC) 102 % of control | dose: 50.0 mg/kg/injection, schedule: Q01DX001 (ip), vehicle: Klucel (hydroxypropylcellulose) (HPC) 100 % of control | [7] 102 % of control

CCCOC(=O)C(C)(O)C(Cl)c1ccccc1 (stereo not given)
inactive: dose: 37.5 mg/kg/injection, schedule: Q01DX009 (ip), vehicle: Klucel (hydroxypropylcellulose) (HPC) 96 % of control | [6] 104 % of control | dose: 58.0 mg/kg/injection, schedule: Q01DX001 (ip), vehicle: saline 108 % of control | dose: 75.0 mg/kg/injection, schedule: Q01DX009 (ip), vehicle: Klucel (hydroxypropylcellulose) (HPC) 100 % of control | dose: 88.0 mg/kg/injection, schedule: Q01DX001 (ip), vehicle: saline 107 % of control | [1] 103 % of control | dose: 100.0 mg/kg/injection, schedule: Q04DX002 (ip), vehicle: saline 109 % of control and 114 % of control | dose: 133.0 mg/kg/injection, schedule: Q01DX001 (ip), vehicle: saline 103 % of control | dose: 150.0 mg/kg/injection, schedule: Q01DX009 (ip), vehicle: Klucel (hydroxypropylcellulose) (HPC) 104 % of control | [2] 106 % of control and 109 % of control | dose: 200.0 mg/kg/injection, schedule: Q04DX002 (ip), vehicle: saline 117 % of control | dose: 300.0 mg/kg/injection, schedule: Q01DX001 (ip), vehicle: saline 98 % of control | dose: 300.0 mg/kg/injection, schedule: Q01DX009 (ip), vehicle: Klucel (hydroxypropylcellulose) (HPC) 104 % of control | dose: 400.0 mg/kg/injection, schedule: Q01DX001 (ip), vehicle: saline 96 % of control | dose: 400.0 mg/kg/injection, schedule: Q04DX002 (ip), vehicle: saline 105 % of control and 118 % of control

COc1c(NC(=O)Nc2ccccc2C)cccc1[N+](=O)[O-]
inactive: dose: 6.25 mg/kg/injection, schedule: Q01DX009 (ip), vehicle: saline with Tween-80 100 % of control | dose: 6.25 mg/kg/injection, schedule: Q04DX002 (ip), vehicle: saline with Tween-80 96 % of control | dose: 12.5 mg/kg/injection, schedule: Q01DX009 (ip), vehicle: saline with Tween-80 92 % of control | dose: 12.5 mg/kg/injection, schedule: Q04DX002 (ip), vehicle: saline with Tween-80 93 % of control | dose: 25.0 mg/kg/injection, schedule: Q01DX009 (ip), vehicle: saline with Tween-80 88 % of control | dose: 25.0 mg/kg/injection, schedule: Q04DX002 (ip), vehicle: saline with Tween-80 100 % of control

CCOC(=S)c1ccc(S(=O)(=O)Nc2cccc3ccccc23)cc1
inactive: [7] 97 % of control | [8] 98 % of control | [9] 95 % of control

C=CCOC(=O)Nc1cccc(OC(=O)NC)c1
inactive: [3] 105 % of control | [4] 105 % of control | [5] 100 % of control

O=S1(=O)CCC/C1=C\c1ccccc1
inactive: [7] 121 % of control | [8] 103 % of control | [9] 101 % of control
